Measured values reported in patent US12691101B2, “Compound and method for preventing or treating of respiratory diseases comprising the same as an active ingredient” (YONSEI UNIVERSITY, UNIVERSITY - INDUSTRY FOUNDATION (UIF), priority 2019, dated 2026).

Tests used:
[1] = test system: OVA-sensitized and challenged mice; assay: OVA-induced allergic asthma mouse model; assay type: in vivo; settings: for OVA-induced airway sensitivity / airway resistance: pretreatment, F56 10 mg/kg i.p. 12 hours before OVA challenge, methacholine
Description: (A) Protocol of induction of allergic airway inflammation solution after allergen antigen challenge in a wild-type mouse and time course. F56 (10 mg/kg three times/day) was applied after tertiary OVA challenge. (B) Airway reactivity measured by whole body plethysmography in an OVA-induced asthma model. Penh was measured in response to an increased dose of methacholine (mean±S.E., n=4). (C) Representative PAS staining of airway tissue. Size bar, 100 μm. (D) Summary of PAS positive cells (mean±S.E., n=4). * P<0.05.
Experiments were performed using 8-week-old BALB/c mice. The experimental protocol was approved by the Animal Ethics Committee of Yonsei University. Mice were housed and maintained in an animal facility under standard laboratory conditions [12/12 hours light/dark cycle, controlled temperature (21±2° C.) and humidity (55±5%) and access to any food and water]. All the experiments were performed according to the guidelines of Yonsei University Animal Research Committee. Mice were divided to 3 groups, vehicle group (vehicle-treated PBS-sensitized and challenged mice), OVA group (vehicle-treated OVA-sensitized and challenged mice) and OVA+F56 group (F56-treated OVA-sensitized and challenged mice). Age and sex-matched 8-week-old mice were sensitized by i.p. injection of OVA (Sigma-Aldrich) on Days 0 and 14. The sensitization emulsion was composed of 50 μg OVA and 2 mg aluminum potassium sulfate in 200 μL saline solution. On Days 21, 22 and 23, sensitized mice were lightly anesthetized by isoflurane inhalation and challenged with 100 μg OVA in 30 μL saline solution administered intranasally. The control mice were treated in the same manner as PBS. F56 (10 mg/kg) was administered by i.p injection 12 hours before i.n. OVA challenge, respectively.
The airway response for methacol (MCh) 24 hours after the last OVA exposure was measured using FlexiVent system (Scireq, Montreal, QC, Canada). Mice were anesthetized by intraperitoneal injection of the mixture of Zoletil (30 mg/kg; Virbac Laboratories, Carros, France) and Rompun (10 mg/kg; Bayer, Leverkusen, Germany), and then tracheostomy was performed to connect to FlexiVent. The base line airway resistance was measured after spraying saline solution for 10 seconds using Aeroneb ultrasonic nebulizer (SCIREQ). After measuring the base line, the mice were exposed to nebulized methacholine at an increased concentration (0, 1.56, 3.13, 6.25, 12.5 and 25 mg/mL). In addition, using whole body plethysmography (Buxco, Miami, FL, USA), the bronchial airway responsibility was measured. As a major index of the airway responsibility, enhanced pause (Penh) was used. Under the base line condition, Penh was measured for 2 minutes. Then, the mice were exposed to inhalation of PBS or MCh (25 mg/mL) for 2 minutes. The Penh result was expressed as an absolute value.
After evaluation of the airway responsiveness, BAL was performed. The cells were pelleted by centrifugation and resuspended in PBS to obtain the number of cells. Cytospin was prepared with a cell centrifuge (Shandon Cytospin 4 cell centrifuge; Thermo Scientific, MA, USA, USA) and stained with Diff-Quik Stain Set (Dade Behring, USA, DE, USA) to evaluate inflammation.
For evaluation of airway inflammation, left lung was fixed in 4% paraformaldehyde overnight and embedded in paraffin. A histological slide was prepared from 5-μm section, and stained with hematoxylin and eosin (H&E). The inflammation score showing the severity of bronchial inflammation was evaluated by 3 blind observers using a method reported conventionally. To evaluate goblet cell hyperplasia, the section was stained with periodic acid-Schiff (PAS) using PAS staining kit (Sigma-Aldrich), according to the manufacturer's protocol. The nasal cavity mucous membrane and HNE cells collected on the transwell were softly washed with PBS and fixed with 4% paraformaldehyde. […]

[2] = test system: AN01, CFTR and ENaC mRNA; assay: Real-time PCR of AN01, CFTR and ENaC mRNA in IL-4-treated HNE cells; assay type: cell-based, human; settings: long-term treatment (F10: 120 hours)
Description: The total messenger RNA (mRNA) was extracted using TRIzol reagent (Invitrogen, Carlsbad, CA, USA), and was reverse-transcribed using a random hexamer primer, an oligo(dT) primer and SuperScript® III reverse transcriptase (Invitrogen). Quantitative real-time PCR was performed using StepOnePlus Real-Time PCR system (Applied Biosystems, Foster City, CA, USA) and Thunderbird SYBR qPCR mix (Tokyobo, Osaka, Japan). Thermal cycling conditions included the initial stage at 95° C. for 5 minutes, and subsequent 40 cycles at 95° C. for 10 seconds, at 55° C. for 20 seconds and at 72° C. for […].

[3] = established model of allergic asthma, 10 mg/kg three times/day after tertiary OVA challenge

| Structure (SMILES) | OVA-induced airway sensitivity / airway resistance [1] | mRNA expression of AN01, CFTR and ENaC [2] | serum level of OVA-specific IgG ([1]; OVA-challenged mice) | goblet cells, inflammation infiltration and epithelial thickness in central airway (histology) ([1]; OVA-challenged mice, 10 mg/kg i.p.) | average inflammation score ([1]; OVA-challenged mice, versus non-treated group) | number of eosinophils and neutrophils in BALF ([1]; OVA-sensitized mice, 10 mg/kg i.p.) | OVA-induced airway sensitivity [1, 3] | PAS positive cells in the airway epithelium [1, 3] |
| --- | --- | --- | --- | --- | --- | --- | --- | --- |
| CC(C)(C)c1ccc(C2=NC(=Cc3ccc[nH]3)C(=O)O2)cc1 [F10, 4-((1H-pyrrol-2-yl)methylene)-2-(4-(tert-butyl)phenyl)oxazol-5 (4H)-one] | reduced the airway resistance | did not show any effect | – | – | – | – | – | – |
| CC(C)(C)c1ccc(C2=NC(=Cc3cccs3)C(=O)O2)cc1 [F56, 2-(4-(tert-butyl)phenyl)-4-(thiophen-2-ylmethylene)oxazol-5(4H)-one] | significantly weakened | did not change | not changed | weekended | significantly lower | reduced | significantly reduced | significantly reduced |
